In patent US8877748B2, “Heterocyclic fused anthraquinone derivatives, manufacturing method and pharmaceutical composition using thereof” (National Defense Medical Center, priority 2012, dated 2014):

Legend:
[1] = system: PC-3 prostate cancer cell line; test: SRB assay cell viability, PC-3 prostate cancer cell line; format: cell-based, human; conditions: Homo sapiens, PC-3 prostate cancer cell line, Table II prints no unit, μM printed, read-out: SRB assay: 50% inhibition of cancer cell proliferation of sample concentration (IC50) of PC-3 prostate cancer cell line
[2] = system: HL-60, TB; test: NCI one-dose screening, leukemia HL-60, TB; format: cell-based, human; conditions: 10 μM
[3] = system: MOLT-4; test: NCI one-dose screening, leukemia MOLT-4; format: cell-based, human; conditions: 10 μM
[4] = system: SR; test: NCI one-dose screening, leukemia SR; format: cell-based, human; conditions: 10 μM
[5] = system: PRMI-8226 cell line; test: NCI one-dose screening, leukemia PRMI-8226; format: cell-based, human; conditions: 10 μM
[6] = system: K562cell line; test: NCI one-dose screening, leukemia K562; format: cell-based, human; conditions: 10 μM
[7] = system: EKVX; test: NCI one-dose screening, non-small cell lung cancer EKVX; format: cell-based, human; conditions: 10 μM
[8] = system: HOP-62; test: NCI one-dose screening, non-small cell lung cancer HOP-62; format: cell-based, human; conditions: 10 μM
[9] = system: HOP-92; test: NCI one-dose screening, non-small cell lung cancer HOP-92; format: cell-based, human; conditions: 10 μM
[10] = system: NCI-H226; test: NCI one-dose screening, non-small cell lung cancer NCI-H226; format: cell-based, human; conditions: 10 μM
[11] = system: NCI-H23; test: NCI one-dose screening, non-small cell lung cancer NCI-H23; format: cell-based, human; conditions: 10 μM
[12] = system: NCI-H460; test: NCI one-dose screening, non-small cell lung cancer NCI-H460; format: cell-based, human; conditions: 10 μM
[13] = system: NCI-H522; test: NCI one-dose screening, non-small cell lung cancer NCI-H522; format: cell-based, human; conditions: 10 μM
[14] = system: A549/ATCC; test: NCI one-dose screening, non-small cell lung cancer A549/ATCC; format: cell-based, human; conditions: 10 μM
[15] = system: COLO 205; test: NCI one-dose screening, colon cancer COLO 205; format: cell-based, human; conditions: 10 μM
[16] = system: HCC-2998; test: NCI one-dose screening, colon cancer HCC-2998; format: cell-based, human; conditions: 10 μM
[17] = system: HCT-116; test: NCI one-dose screening, colon cancer HCT-116; format: cell-based, human; conditions: 10 μM
[18] = system: HCT-15; test: NCI one-dose screening, colon cancer HCT-15; format: cell-based, human; conditions: 10 μM
[19] = system: KM12; test: NCI one-dose screening, colon cancer KM12; format: cell-based, human; conditions: 10 μM
[20] = system: HT29; test: NCI one-dose screening, colon cancer HT29; format: cell-based, human; conditions: 10 μM
[21] = system: SF-268; test: NCI one-dose screening, CNS cancer SF-268; format: cell-based, human; conditions: 10 μM
[22] = system: SF-539; test: NCI one-dose screening, CNS cancer SF-539; format: cell-based, human; conditions: 10 μM
[23] = system: SNB-19; test: NCI one-dose screening, CNS cancer SNB-19; format: cell-based, human; conditions: 10 μM
[24] = system: SNB-75; test: NCI one-dose screening, CNS cancer SNB-75; format: cell-based, human; conditions: 10 μM
[25] = system: U251; test: NCI one-dose screening, CNS cancer U251; format: cell-based, human; conditions: 10 μM
[26] = system: LOX IMVI; test: NCI one-dose screening, melanoma LOX IMVI; format: cell-based, human; conditions: 10 μM
[27] = system: MALME-3M; test: NCI one-dose screening, melanoma MALME-3M; format: cell-based, human; conditions: 10 μM
[28] = system: M14; test: NCI one-dose screening, melanoma M14; format: cell-based, human; conditions: 10 μM
[29] = system: UACC-62; test: NCI one-dose screening, melanoma UACC-62; format: cell-based, human; conditions: 10 μM
[30] = system: UACC-257; test: NCI one-dose screening, melanoma UACC-257; format: cell-based, human; conditions: 10 μM
[31] = system: SK-MEL-2; test: NCI one-dose screening, melanoma SK-MEL-2; format: cell-based, human; conditions: 10 μM
[32] = system: SK-MEL-28; test: NCI one-dose screening, melanoma SK-MEL-28; format: cell-based, human; conditions: 10 μM
[33] = system: SK-MEL-5; test: NCI one-dose screening, melanoma SK-MEL-5; format: cell-based, human; conditions: 10 μM
[34] = system: IGROV1; test: NCI one-dose screening, ovarian cancer IGROV1; format: cell-based, human; conditions: 10 μM
[35] = system: OVCAR-3; test: NCI one-dose screening, ovarian cancer OVCAR-3; format: cell-based, human; conditions: 10 μM
[36] = system: OVCAR-5; test: NCI one-dose screening, ovarian cancer OVCAR-5; format: cell-based, human; conditions: 10 μM
[37] = system: OVCAR-8; test: NCI one-dose screening, ovarian cancer OVCAR-8; format: cell-based, human; conditions: 10 μM
[38] = system: SK-OV-3; test: NCI one-dose screening, ovarian cancer SK-OV-3; format: cell-based, human; conditions: 10 μM
[39] = system: 786-O; test: NCI one-dose screening, renal cancer 786-O; format: cell-based, human; conditions: 10 μM
[40] = system: CAKI-1; test: NCI one-dose screening, renal cancer CAKI-1; format: cell-based, human; conditions: 10 μM
[41] = NCI one-dose screening, renal cancer A489; format: cell-based, human; conditions: 10 μM
[42] = system: ACHN; test: NCI one-dose screening, renal cancer ACHN; format: cell-based, human; conditions: 10 μM
[43] = system: SN12C; test: NCI one-dose screening, renal cancer SN12C; format: cell-based, human; conditions: 10 μM
[44] = system: TK-10; test: NCI one-dose screening, renal cancer TK-10; format: cell-based, human; conditions: 10 μM
[45] = system: UO-31; test: NCI one-dose screening, renal cancer UO-31; format: cell-based, human; conditions: 10 μM
[46] = system: RXF, 393; test: NCI one-dose screening, renal cancer RXF, 393; format: cell-based, human; conditions: 10 μM
[47] = system: DU145; test: NCI one-dose screening, prostate cancer DU145; format: cell-based, human; conditions: 10 μM
[48] = system: PC-3; test: NCI one-dose screening, prostate cancer PC-3; format: cell-based, human; conditions: 10 μM
[49] = system: MCF7; test: NCI one-dose screening, breast cancer MCF7; format: cell-based, human; conditions: 10 μM
[50] = system: HS 578-T; test: NCI one-dose screening, breast cancer HS 578-T; format: cell-based, human; conditions: 10 μM; Breast cancer
[51] = system: MDA-MB-231/ATCC; test: NCI one-dose screening, breast cancer MDA-MB-231/ATCC; format: cell-based, human; conditions: 10 μM
[52] = system: MDA-MB-468; test: NCI one-dose screening, breast cancer MDA-MB-468; format: cell-based, human; conditions: 10 μM
[53] = system: NCl/ADR-RES; test: NCI one-dose screening, breast cancer NCl/ADR-RES; format: cell-based, human; conditions: 10 μM; listed under Ovarian cancer
[54] = system: BT-549; test: NCI one-dose screening, breast cancer BT-549; format: cell-based, human; conditions: 10 μM
[55] = system: T-47D; test: NCI one-dose screening, breast cancer T-47D; format: cell-based, human; conditions: 10 μM
[56] = system: MDA, -MB-435; test: NCI one-dose screening, breast cancer MDA, -MB-435; format: cell-based, human; conditions: 10 μM; listed under Melanoma
[57] = system: human tumor cell lines; test: NCI one-dose screening, Mean / Delta / Range of growth percent over all tested cell lines; format: cell-based; conditions: 10 μM

COc1ccc(Sc2cc3c(c4nsnc24)C(=O)c2ccccc2C3=O)cc1 [C41, 4-(4-methoxy-phenyl-thio)anthra[2,1-c] [1,2,5]thiadiazol-6,11-dione]
IC50 [1]: > 15 µM
Growth Percent HL-60(TB) [2]: 102.73%
Growth Percent MOLT-4 [3]: 82.89%
Growth Percent SR [4]: 101.71%
Growth Percent RPMI-8226 [5]: 101.16%
Growth Percent K562 [6]: 91.98%
Growth Percent EKVX [7]: 148.76%
Growth Percent HOP-62 [8]: 95.20%
Growth Percent HOP-92 [9]: 91.38%
Growth Percent NCI-H226 [10]: 79.51%
Growth Percent NCI-H23 [11]: 89.13%
Growth Percent NCI-H460 [12]: 107.16%
Growth Percent NCI-H522 [13]: 95.69%
Growth Percent A549/ATCC [14]: 103.32%
Growth Percent COLO 205 [15]: 112.25%
Growth Percent HCC-2998 [16]: 106.85%
Growth Percent HCT-116 [17]: 94.64%
Growth Percent HCT-15 [18]: 109.35%
Growth Percent KM12 [19]: 101.28%
Growth Percent HT29 [20]: 101.30%
Growth Percent SF-268 [21]: 94.81%
Growth Percent SF-539 [22]: 93.53%
Growth Percent SNB-19 [23]: 113.97%
Growth Percent SNB-75 [24]: 79.05%
Growth Percent U251 [25]: 102.73%
Growth Percent LOX IMVI [26]: 90.24%
Growth Percent MALME-3M [27]: 89.52%
Growth Percent M14 [28]: 92.89%
Growth Percent UACC-62 [29]: 108.99%
Growth Percent UACC-257 [30]: 118.11%
Growth Percent SK-MEL-2 [31]: 99.24%
Growth Percent SK-MEL-28 [32]: 115.63%
Growth Percent SK-MEL-5 [33]: 106.14%
Growth Percent IGROV1 [34]: 103.17%
Growth Percent OVCAR-3 [35]: 109.57%
Growth Percent OVCAR-5 [36]: 103.00%
Growth Percent OVCAR-8 [37]: 99.50%
Growth Percent SK-OV-3 [38]: 106.18%
Growth Percent 786-0 [39]: 94.93%
Growth Percent CAKI-1 [40]: 108.29%
Growth Percent A498 [41]: 84.77%
Growth Percent ACHN [42]: 102.26%
Growth Percent SN12C [43]: 106.54%
Growth Percent TK-10 [44]: 135.79%
Growth Percent UO-31 [45]: 68.31%
Growth Percent RXF 393 [46]: 109.28%
Growth Percent DU145 [47]: 112.48%
Growth Percent PC-3 [48]: 82.81%
Growth Percent MCF7 [49]: 93.78%
Growth Percent HS 578T [50]: 96.71%
Growth Percent MDA-MB-231/ATCC [51]: 87.58%
Growth Percent MDA-MB-468 [52]: 112.95%
Growth Percent NCI/ADR-RES [53]: 97.60%
Growth Percent BT-549 [54]: 92.92%
Growth Percent T-47D [55]: 89.66%
Growth Percent MDA-MB-435 [56]: 118.61%
Growth Percent Delta ([57]; delta over all cell lines): 32.46%
Growth Percent Mean ([57]; mean over all cell lines): 1000.77%
Growth Percent Range ([57]; range over all cell lines): 80.45%
